Data reported in publication PMC7698842, “Lanostane Triterpenoid Metabolites from a Penares sp. Marine Sponge Protect Neuro-2a Cells against Paraquat Neurotoxicity” (Molecules, 2020).

How the values were obtained:
[1] = DPPH radical scavenging assay (cell-free); settings: 30 min, MeOH
Procedure: The 2,2-diphenyl-1-picryl-hydrazyl-hydrate (DPPH) radical scavenging activity was tested as described previously. The compounds were dissolved in MeOH, and the solutions (120 µL) were dispensed into wells of a 96-well microplate. The DPPH (Sigma-Aldrich, Steinheim, Germany) was dissolved in MeOH at a concentration of 7.5 × 10^−3 M and the solution (30 µL) was added to each well. The concentrations of tested compounds in the mixtures were 10 and 100 µM. Ascorbic acid was used as a positive control. The mixtures were shaken and left for 30 min. The absorbance of the resulting solutions was measured at λ = 520 nm with a MultiscanFC plate reader (Thermo Scientific, Waltham, MA, USA). The concentration scavenging 50% of the DPPH radical (EC50) was calculated for each compound.

[2] = test system: PQ-treated Neuro-2a cells; assay: Neurite outgrowth estimation in PQ-treated Neuro-2a cells; format: cell-based, mouse
Procedure: Neurite outgrowth was studied as described by Li et al.. Neuro-2a cells were seeded in 6-well plates (1.6 × 10^5 cells/well) in DMEM medium containing 10% fetal bovine serum (Biolot, St. Peterburg, Russia) and 1% penicillin/streptomycin (Invitrogen, Carlsbad, CA, USA). The next day, this growth media was changed with serum-free DMEM media containing 1% penicillin/streptomycin, and cells were treated with studied compounds at a concentration of 10 µM for 1 h. After that, PQ (500 µM) was added and cells were incubated during 24 h. Cells incubated without PQ and compounds and with PQ alone were used as positive and negative controls, respectively.
For each well, approximately 10 images were acquired randomly by scanning the wells from left to right and top to bottom using the AxioImager A1 microscope (CarlZeiss, Oberkochen, Germany). A total of ten random fields (near 350 cells in each) for each experimental group were scored for neurite outgrowth. The number of neurite-bearing cells and lengths of the individual neurites for each cell were measured using the AxioVision 4.7.1 software (CarlZeiss, Oberkochen, Germany). Length was defined as the straight-line distance from the tip of the neurite to the junction between the cell body and neurite base. In the case of branched neurites, the length of the longest branch was measured from the tip of the neurite to the cell body. In each experimental group, the average length of neurites was calculated, as well as the average number of neurites per one cell.

[3] = test system: Hsp70 level in Neuro-2a cells; assay: Hsp70 level analysis by Western blot in Neuro-2a cells; format: cell-based, mouse; settings: for increase of Hsp70 level in PQ-treated cells: compound 10 µM 1 h, then PQ 500 µM 24 h
Procedure: The Hsp70 expression was detected by Western blot analysis. Cell suspensions (1.6 × 10^5 cells/well of a 6-well plate) were seeded and treated with studied compounds at a concentration of 10 µM for 1 h. After that, PQ (500 µM) was added and cells were incubated during 24 h. Cells incubated without PQ and compounds and with PQ alone were used as positive and negative controls, respectively. Cells were washed by cold PBS (BioloT, Russia) twice and lysed by radioimmunoprecipitation assay (RIPA) buffer (BioloT, St. Peterburg, Russia). The amount of proteins was measured by the Bradford method and equal samples (25 µg) were prepared using sample buffer. Proteins were separated with sodium dodecyl sulphate (SDS) electrophoresis in 10% polyacrylamide gel. The electrophoretically separated proteins were transferred onto the polyvinylidene difluoride (PVDF) membrane Whatman (Sigma-Aldrich, St. Louis, MO, USA) using a semi-dry transfer apparatus (Helicon, Moscow, Russia). […] The peroxidase reaction was visualized by an enhanced chemiluminescence (ECL) kit according to the instructions of the manufacturer (Sigma-Aldrich, St. Louis, MO, USA) using the VersaDoc Imaging System (Bio-Rad, Hercules, CA, USA).

[4] = Cytotoxicity toward Neuro-2a cells (MTT assay); format: cell-based, mouse; settings: mouse, Neuro-2a neuroblastoma cells, 24 h; for activity at 24 h, 10 µM: Neuro-2a cell viability, read-out: Cytotoxicity (MTT Assay) % of Control at 10 μM; for IC50 at 24 h: Neuro-2a cells
Procedure: (§1) The cells of mouse neuroblastoma cell line Neuro-2a (ATCC® CCL-131™; American Type Culture Collection, Manassas, VA, USA) were cultured in Dulbecco’s modified Eagle’s medium (DMEM) containing 10% fetal bovine serum (Biolot, St. Petersburg, Russia) and 1% penicillin/streptomycin (Biolot, St. Petersburg, Russia) at 37 °C in a humidified atmosphere with 5% (v/v) CO2. Initially, cells were incubated in cultural flasks until sub-confluent (~80%). For testing, Neuro-2a cells were seeded in 96- or 6-well plates and experiments were started after 24 h.
(§2) The cells (1 × 10^4 cells/well of a 96-well plate) were incubated with different concentrations of studied compounds during 24 h. After that, cell viability was determined by the MTT (3-(4,5-dimethylthiazol-2-yl)-2,5-diphenyltetrazolium bromide) method according to the manufacturer’s instructions (Sigma-Aldrich, St. Louis, MO, USA). Absorbance of the converted formazan was measured using a Multiskan FC microplate photometer (Thermo Scientific, Waltham, MA, USA) at λ = 570 nm. The results were presented as percent of control data, and concentration of cell viability inhibition on 50% (IC50) was calculated.

[5] = test system: PQ-treated Neuro-2a cells; assay: Propidium iodide straining of PQ-treated Neuro-2a cells (membrane permeability); format: cell-based, mouse; settings: 24 h; for decrease of fluorescence of PI-straining cells: compound 10 μM pre-incubation, PQ-treated cells
Procedure: The cells (1 × 10^4 cells/well) were seeded in black 96-well plates before testing. After incubation of the cells with compounds and PQ during 24 h, PI solution (10 μg/mL) was added to each well and the plate was incubated in the dark at 37 °C for 10 min. Cells were washed with phosphate buffer saline (PBS) (BioloT, St.Peterburg, Russia) and fluorescence was measured with a Fluoroskan Ascent plate reader (Thermo Labsystems, Helsinki, Finland) at […]. All manipulations with fluorescent probes were carried out in a darkened room. The results were presented as percent of positive control data.

[6] = test system: mitochondrial membrane potential in PQ-treated Neuro-2a cells; assay: Mitochondrial membrane potential detection (TMRM) in PQ-treated Neuro-2a cells; format: cell-based, mouse
Procedure: The cells (1 × 10^4 cells/well of a 96-well plate) were incubated with compound solutions (1 and 10 µM) during 1 h. Then, PQ was added to cell suspension to a resulting concentration of 500 µM for incubation during 1 h. Cells incubated without PQ and compounds and with PQ alone were used as positive and negative controls, respectively. The tetramethylrhodamine methyl (TMRM) (Sigma-Aldrich, St. Louis, MO, USA) solution at 500 nM was added in each well and cells were incubated for 30 min at 37 °C. The intensity of fluorescence was measured with a PHERAstar FS plate reader (BMG Labtech, Ortenberg, Germany) at λex = 540 nm and λem = 590 nm. The data were processed by MARS Data Analysis v. 3.01R2 (BMG Labtech, Ortenberg, Germany). The results were presented as percent of positive control data.

[7] = test system: ROS level in PQ-treated Neuro-2a cells; assay: ROS level analysis in PQ-treated Neuro-2a cells (H2DCFDA); format: cell-based, mouse; settings: for concentrations at which ROS content in PQ-treated cells was reduced: tested at 1 and 10 μM
Procedure: The cells (1 × 10^4 cells/well of a 96-well plate) were incubated with compound solutions (1 and 10 µM) during 1 h. Then, PQ was added to cell suspension to a resulting concentration of 500 µM for incubation during 1 h. Cells incubated without PQ and compounds and with PQ alone were used as positive and negative controls, respectively. The 20 µL of 2,7-dichlorodihydrofluorescein diacetate solution (H2DCFDA, Molecular Probes, Eugene, OR, USA) was added to each well (10 µM, final concentration) and the plate was incubated for an additional 10 min at 37 °C. The intensity of dichlorofluorescin fluorescence was measured with a PHERAstar FS plate reader (BMG Labtech, Ortenberg, Germany) at λex = 485 nm and λem = 518 nm. The data were processed by MARS Data Analysis v. 3.01R2 (BMG Labtech, Ortenberg, Germany). The results were presented as percent of positive control data.

[8] = test system: PQ-treated Neuro-2a cells; assay: PQ-treated Neuro-2a cell viability (MTT assay); format: cell-based, mouse; settings: 24 h; for effect on PQ-treated cell viability (MTT assay): compound 1 and 10 µM, PQ 500 µM
Procedure: as §2
(§3) The cells (1 × 10^4 cells/well of a 96-well plate) were treated with studied compounds at concentrations of 1 and 10 µM for 1 h and then 500 µM of PQ (Sigma-Aldrich, St. Louis, MO, USA) was added to the neuroblastoma cells. Cells incubated without PQ and compounds and with PQ alone were used as positive and negative controls, respectively. The viability of cells was measured after 24 h using MTT and FDA methods. The results were presented as percent of positive control data.

[9] = test system: PQ-treated Neuro-2a cells; assay: PQ-treated Neuro-2a cell viability (FDA assay); format: cell-based, mouse; settings: 24 h
Procedure: A stock solution of the fluorescein diacetate (FDA) (Sigma-Aldrich, St. Louis, MO, USA) in DMSO (1 mg/mL) was prepared. The cells (1 × 10^4 cells/well) were seeded in black 96-well plates before testing. After incubation of the cells with compounds and PQ during 24 h, FDA solution (50 μg/mL) was added to each well and the plate was incubated in the dark at 37 °C for 15 min. Cells were washed with phosphate buffer saline (PBS) (BioloT, S.-Peterburg, Russia) and fluorescence was measured with a Fluoroskan Ascent plate reader (Thermo Labsystems, Helsinki, Finland) at λex = 485 nm and λem = 518 nm. All manipulations with fluorescent probes were carried out in a darkened room. Cell viability was expressed as the percent of control.
as §3

[10] = test system: Neuro-2a cells; assay: Cytotoxicity toward Neuro-2a cells (MTT assay); format: cell-based, mouse; settings: Neuro-2a cells, 100 μM, MTT assay
Procedure: as §1, §2

[11] = compound 10 µM 1 h, then PQ 500 µM 24 h
[12] = PQ-treated cells (PQ alone 500 µM)

| Compound | EC50 [1] | increase in the average number of neurites per cell [2, 11] | increase of Hsp70 level in PQ-treated cells [3] | activity at 24 h, 10 µM [4] | IC50 at 24 h [4] | decrease of fluorescence of PI-straining cells [5] | effect on PQ-treated cell viability (MTT assay) [8] | concentrations at which ROS content in PQ-treated cells was reduced ([7]; PQ 500 µM 1 h) | other results |
| --- | --- | --- | --- | --- | --- | --- | --- | --- | --- |
| O=C1O[C@H]([C@@H](O)CO)C(O)=C1O [Ascorbic acid, reference compound] | 20.5 ± 1.5 µM |  |  |  |  |  |  |  |  |
| CC(=O)O[C@H]1CC[C@@]2(C)[C@@H](C[C@@H]3O[C@]34[C@]23CC[C@]2(C)[C@@H]([C@H](C)CCC=C(C)C)CC[C@@]42C(=O)O3)C1(C)C [Compound 1, 3β-acetoxy-7β,8β-epoxy-5α-lanost-24-en-30,9α-olide] | > 100 µM | 16% | 62% | 92.1 ± 7.1% | 85.7 ± 2.4 µM | 16% |  |  | effect on the number of neurite-bearing PQ-treated cells ([2]; compound 10 µM, PQ 500 µM): did not show a statistical effect; increase of intensity of TMRM fluorescence (PQ-induced mitochondrial dysfunction diminished) ([6]; compound 10 μM, PQ 500 µM 1 h): 37%; effect on ROS level in PQ-treated cells ([7]; compound 1 and 10 µM, 1 h pre-treatment, PQ 500 µM 1 h): did not affect ROS level |
| CC(C)=CCC[C@@H](C)[C@H]1CC[C@]23C(=O)O[C@]4(CC[C@]12C)[C@]31O[C@H]1C[C@H]1C(C)(C)[C@@H](O)CC[C@@]14C [Compound 2, 3β-hydroxy-7β,8β-epoxy-5α-lanost-24-en-30,9α-olide] | > 100 µM | 12% | 43% | 96.9 ± 1.1% | > 100 µM | 12% | did not show any effect | reduced ROS content only at a concentration of 10 μM |  |
| CC(C)=CCC[C@@H](C)[C@H]1CC[C@@]2(C(=O)O)C3=C(CC[C@]12C)[C@@]1(C)CCC(=O)[C@@H](C)[C@@H]1CC3 [Compound 3, 29-nor-penasterone] | > 100 µM | 17% | 26% | 91.1 ± 4.1% | > 100 µM |  | did not show any effect | reduced ROS content only at a concentration of 10 μM | increase of neurites-bearing cell amount compared to PQ-treated control [2, 11]: 113%; effect on PQ-treated cell viability (FDA assay) ([9]; compound 1 and 10 µM, PQ 500 µM): did not show any effect; death of cells [10]: 37.4% |
| N,N-dimethyl-4,4-bipyridinium dichloride [PQ, reference compound] |  |  |  |  |  |  |  |  | average length of neurites, less than control value by ([2]; PQ alone 500 µM, 24 h): 29%; number of neurites per cell, less than control value by ([2]; PQ alone 500 µM, 24 h): 14%; cells with neurites ([2]; PQ alone 500 µM, 24 h, control 30%): 10%; proportion of neurites with a length of 0–4.99 µm in the total number [2, 12]: 11.1%; proportion of neurites with a length of 10.00–14.99 µm in the total number [2, 12]: 16.6%; PQ-treated cell viability, % of control cells (FDA assay) ([9]; PQ alone 500 µM): 62.2%; change of Hsp70 level in comparison with control cells ([3]; PQ alone 500 µM, 24 h): half-decrease; PQ-treated cell viability, % of control cells (MTT assay) ([8]; PQ alone 500 µM): 45.4%; increase in the number of PI-straining cells ([5]; PQ alone, versus control): 35%; decrease of TMRM fluorescence ([6]; PQ alone, 1 h exposition): 30%; increase of ROS level compared to control cells ([7]; PQ alone 500 µM, within 1 h): 40% |
